Source: patent publication US20150105252A1, “SUBSTITUTED PYRAZOLES AS HERBICIDES” (E I DU PONT DE NEMOURS AND COMPANY, priority 2013, published 2015)

Key:
morningglory = assay: Test A preemergence; type: in vivo, Ipomoea spp.; details: preemergence
In short: (§1)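 Visual injury rating, 0–100 (0 no effect, 100 complete control), vs untreated controls ~10 days after treatment in greenhouse. Pre: directed soil spray on seeded loam/sand. Post: 2–10 cm plants, 1–2 leaf stage. Formulation: non-phytotoxic solvent mix + surfactant.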

crabgrass, large [1] = assay: Test A preemergence; type: in vivo, Digitaria sanguinalis; details: preemergence
In short: as §1

crabgrass, large [2] = assay: Test C preemergence; type: in vivo, Digitaria sanguinalis; details: for Crabgrass, Large plant response rating / Plant response rating, Crabgrass, Large: preemergence; for Plant response rating, Crabgrass, Large: 125 g ai/ha, scale 0 to 100, 0 = no effect, 100 = complete control
In short: (§2)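 Seeds sown in loam–sand blend and treated preemergence with test chemicals in non-phytotoxic solvent with surfactant; postemergence plants in peat-based medium, treated at 2–18 cm (1- to 4-leaf stage). Greenhouse 13 to 15 days, then visual rating versus controls, 0 (no effect) to 100 (complete control).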

chickweed = assay: Test C postemergence; type: in vivo, Stellaria media; details: for Plant response rating (scale of 0 to 100 where 0 is no effect and 100 is complete control), Chickweed: Postemergence, 31 g ai/ha, visually evaluated after 13 to 15 days; for Chickweed plant response rating / Plant response rating, Chickweed: postemergence; for Chickweed plant response rating: 62 g ai/ha, scale 0 to 100
In short: as §2

waterhemp = assay: Test C preemergence; type: in vivo, Amaranthus rudis; details: for Waterhemp plant response rating / Plant response rating, Waterhemp: preemergence; for Plant response rating, Waterhemp: 125 g ai/ha, scale 0 to 100, 0 = no effect, 100 = complete control
In short: as §2

kochia = assay: Test C postemergence; type: in vivo, Kochia scoparia; details: for Plant response rating (scale of 0 to 100 where 0 is no effect and 100 is complete control), Kochia: Postemergence, 31 g ai/ha, visually evaluated after 13 to 15 days; for Kochia plant response rating / Plant response rating, Kochia: postemergence; for Kochia plant response rating: 62 g ai/ha, scale 0 to 100
In short: as §2

foxtail, giant = assay: Test C preemergence; type: in vivo, Setaria faberii; details: for Foxtail, Giant plant response rating / Plant response rating, Foxtail, Giant: preemergence; for Plant response rating, Foxtail, Giant: 125 g ai/ha, scale 0 to 100, 0 = no effect, 100 = complete control
In short: as §2

ryegrass, Italian = assay: Test C preemergence; type: in vivo, Lolium multiflorum; details: for Ryegrass, Italian plant response rating / Plant response rating, Ryegrass, Italian: preemergence; for Plant response rating, Ryegrass, Italian: 125 g ai/ha, scale 0 to 100, 0 = no effect, 100 = complete control
In short: as §2

barnyardgrass [3] = assay: Test A postemergence; type: in vivo, Echinochloa crus-galli
In short: as §1

johnsongrass = assay: Test C preemergence; type: in vivo, Sorghum halepense; details: for Johnsongrass plant response rating / Plant response rating, Johnsongrass: preemergence; for Plant response rating, Johnsongrass: 125 g ai/ha, scale 0 to 100, 0 = no effect, 100 = complete control
In short: as §2

pigweed = assay: Test A postemergence; type: in vivo, Amaranthus retroflexus
In short: as §1

crabgrass, large [4] = assay: Test C postemergence; type: in vivo, Digitaria sanguinalis; details: for Plant response rating (scale of 0 to 100 where 0 is no effect and 100 is complete control), Crabgrass, Large: Postemergence, 31 g ai/ha, visually evaluated after 13 to 15 days; for Crabgrass, Large plant response rating / Plant response rating, Crabgrass, Large: postemergence; for Crabgrass, Large plant response rating: 62 g ai/ha, scale 0 to 100
In short: as §2

barnyardgrass [5] = assay: Test C postemergence; type: in vivo, Echinochloa crus-galli; details: for Plant response rating (scale of 0 to 100 where 0 is no effect and 100 is complete control), Barnyardgrass: Postemergence, 31 g ai/ha, visually evaluated after 13 to 15 days; for Barnyardgrass plant response rating / Plant response rating, Barnyardgrass: postemergence; for Barnyardgrass plant response rating: 62 g ai/ha, scale 0 to 100
In short: as §2

velvetleaf = assay: Test C preemergence; type: in vivo, Abutilon theophrasti; details: for Velvetleaf plant response rating / Plant response rating, Velvetleaf: preemergence; for Plant response rating, Velvetleaf: 125 g ai/ha, scale 0 to 100, 0 = no effect, 100 = complete control
In short: as §2

[6] = 125 g ai/ha, visual injury approx. 10 days after treatment
[7] = 500 g ai/ha, visual injury after approx. 10 days, 0 to 100 scale (0 no effect, 100 complete control)
[8] = 31 g ai/ha, visual rating, scale 0 to 100 (0 no effect, 100 complete control), 13 to 15 days
[9] = 62 g ai/ha, scale 0 to 100 (0 no effect, 100 complete control), 13 to 15 days
[10] = 250 g ai/ha, scale 0 to 100, 0 is no effect, 100 is complete control
[11] = 250 g ai/ha, scale 0 to 100 (0 no effect, 100 complete control)
[12] = 125 g ai/ha, scale 0 to 100, 0 no effect, 100 complete control
[13] = Postemergence, 500 g ai/ha, 0 to 100 scale (0 no effect, 100 complete control)
[14] = postemergence, 125 g ai/ha, about 10 days, visual rating on 0 to 100 scale (0 no effect, 100 complete control)
[15] = 125 g ai/ha, visual injury, 0 to 100 scale, approx. 10 days

In the case of `CCCc1cc(C(=O)NC2CC2)nn1Cc1cc(C(F)(F)F)nn1C` [Compound 202], the “Morningglory plant response rating (0 to 100 scale)” value (morningglory; [6]) is reported as 100, the “Morningglory plant response rating” value (morningglory; [7]) is reported as 100 and the “Crabgrass, Large plant response rating (0 to 100 scale)” value (crabgrass, large [1]; [6]) is reported as 100. The “Crabgrass, Large plant response rating” value (crabgrass, large [1]; [7]) was 100, the “Crabgrass, Large plant response rating” value (crabgrass, large [2]; [8]) was 100 and the “Crabgrass, Large plant response rating” value (crabgrass, large [2]; [9]) was 100. For the same molecule, the “Plant response rating, Crabgrass, Large” value (crabgrass, large [2]; 13 to 15 days) was 100, the “Crabgrass, Large plant response rating” value (crabgrass, large [2]; [10]) was 100 and the “Plant response rating (scale of 0 to 100 where 0 is no effect and 100 is complete control), Chickweed” value (chickweed) was 75. For the same molecule, the “Chickweed plant response rating” value (chickweed) was 80, the “Plant response rating, Chickweed” value (chickweed; [11]) was 85 and the “Plant response rating, Chickweed” value (chickweed; [12]) was 80. For the same molecule, the “Waterhemp plant response rating” value (waterhemp; [8]) was 100, the “Waterhemp plant response rating” value (waterhemp; [9]) was 100 and the “Plant response rating, Waterhemp” value (waterhemp; 13 to 15 days) was 100. The “Waterhemp plant response rating” value (waterhemp; [10]) was 100, the “Plant response rating (scale of 0 to 100 where 0 is no effect and 100 is complete control), Kochia” value (kochia) was 85 and the “Kochia plant response rating” value (kochia) was 90. The “Plant response rating, Kochia” value (kochia; [11]) was 90, the “Plant response rating, Kochia” value (kochia; [12]) was 90 and the “Foxtail, Giant plant response rating” value (foxtail, giant; [8]) was 100. For the same molecule, the “Foxtail, Giant plant response rating” value (foxtail, giant; [9]) was 100, the “Plant response rating, Foxtail, Giant” value (foxtail, giant; 13 to 15 days) was 100 and the “Foxtail, Giant plant response rating” value (foxtail, giant; [10]) was 100. For the same molecule, the “Ryegrass, Italian plant response rating” value (ryegrass, Italian; [8]) was 5, the “Ryegrass, Italian plant response rating” value (ryegrass, Italian; [9]) was 50 and the “Plant response rating, Ryegrass, Italian” value (ryegrass, Italian; 13 to 15 days) was 90. For the same molecule, the “Ryegrass, Italian plant response rating” value (ryegrass, Italian; [10]) was 90, the “Barnyardgrass plant response rating” value (barnyardgrass [3]; [13]) was 100 and the “Barnyardgrass plant response rating” value (barnyardgrass [3]; [14]) was 90. The “Johnsongrass plant response rating” value (johnsongrass; [8]) was 50, the “Johnsongrass plant response rating” value (johnsongrass; [9]) was 85 and the “Plant response rating, Johnsongrass” value (johnsongrass; 13 to 15 days) was 100. The “Johnsongrass plant response rating” value (johnsongrass; [10]) was 100, the “Pigweed plant response rating” value (pigweed; Postemergence, 125 g ai/ha, 0 to 100 scale, 0 no effect, 100 complete control) was 100 and the “Pigweed plant response rating” value (pigweed; [13]) was 100. The “Plant response rating (scale of 0 to 100 where 0 is no effect and 100 is complete control), Crabgrass, Large” value (crabgrass, large [4]) was 5, the “Crabgrass, Large plant response rating” value (crabgrass, large [4]) was 10 and the “Plant response rating, Crabgrass, Large” value (crabgrass, large [4]; [11]) was 70. For the same molecule, the “Plant response rating, Crabgrass, Large” value (crabgrass, large [4]; [12]) was 25, the “Plant response rating (scale of 0 to 100 where 0 is no effect and 100 is complete control), Barnyardgrass” value (barnyardgrass [5]) was 10 and the “Barnyardgrass plant response rating” value (barnyardgrass [5]) was 10. For the same molecule, the “Plant response rating, Barnyardgrass” value (barnyardgrass [5]; [11]) was 25, the “Plant response rating, Barnyardgrass” value (barnyardgrass [5]; [12]) was 15 and the “Velvetleaf plant response rating” value (velvetleaf; [8]) was 60. For the same molecule, the “Velvetleaf plant response rating” value (velvetleaf; [9]) was 100, the “Plant response rating, Velvetleaf” value (velvetleaf; 13 to 15 days) was 100 and the “Velvetleaf plant response rating” value (velvetleaf; [10]) was 100.
With `CCONC(=O)c1cc(CC)n(Cc2ccnc(OC(F)F)c2)n1` [Compound 131] the “Morningglory plant response rating” value (morningglory; [15]) was 100, the “Morningglory plant response rating” value (morningglory; [7]) was 100 and the “Crabgrass, Large plant response rating” value (crabgrass, large [1]; [15]) was 100. For the same molecule, the “Crabgrass, Large plant response rating” value (crabgrass, large [1]; [7]) was 100, the “Plant response rating (scale of 0 to 100), Crabgrass, Large” value (crabgrass, large [2]; Preemergence, 250 g ai/ha) was 100 and the “Crabgrass, Large plant response rating” value (crabgrass, large [2]; [8]) was 90. For the same molecule, the “Crabgrass, Large plant response rating” value (crabgrass, large [2]; [9]) was 100, the “Plant response rating, Crabgrass, Large” value (crabgrass, large [2]; 13 to 15 days) was 100 and the “Plant response rating (scale of 0 to 100 where 0 is no effect and 100 is complete control), Chickweed” value (chickweed) was 70. The “Chickweed plant response rating” value (chickweed) was 70, the “Plant response rating, Chickweed” value (chickweed; [11]) was 80 and the “Plant response rating, Chickweed” value (chickweed; [12]) was 70. For the same molecule, the “Plant response rating (scale of 0 to 100), Waterhemp” value (waterhemp; Preemergence, 250 g ai/ha) was 100, the “Waterhemp plant response rating” value (waterhemp; [8]) was 100 and the “Waterhemp plant response rating” value (waterhemp; [9]) was 100. The “Plant response rating, Waterhemp” value (waterhemp; 13 to 15 days) was 100, the “Plant response rating (scale of 0 to 100 where 0 is no effect and 100 is complete control), Kochia” value (kochia) was 40 and the “Kochia plant response rating” value (kochia) was 70. The “Plant response rating, Kochia” value (kochia; [11]) was 75, the “Plant response rating, Kochia” value (kochia; [12]) was 70 and the “Plant response rating (scale of 0 to 100), Foxtail, Giant” value (foxtail, giant; Preemergence, 250 g ai/ha) was 100. For the same molecule, the “Foxtail, Giant plant response rating” value (foxtail, giant; [8]) was 85, the “Foxtail, Giant plant response rating” value (foxtail, giant; [9]) was 100 and the “Plant response rating, Foxtail, Giant” value (foxtail, giant; 13 to 15 days) was 100. The “Plant response rating (scale of 0 to 100), Ryegrass, Italian” value (ryegrass, Italian; Preemergence, 250 g ai/ha) was 95, the “Ryegrass, Italian plant response rating” value (ryegrass, Italian; [8]) was 15 and the “Ryegrass, Italian plant response rating” value (ryegrass, Italian; [9]) was 55. The “Plant response rating, Ryegrass, Italian” value (ryegrass, Italian; 13 to 15 days) was 85, the “Barnyardgrass plant response rating” value (barnyardgrass [3]; [13]) was 90 and the “Barnyardgrass plant response rating” value (barnyardgrass [3]; [14]) was 80. For the same molecule, the “Plant response rating (scale of 0 to 100), Johnsongrass” value (johnsongrass; Preemergence, 250 g ai/ha) was 95, the “Johnsongrass plant response rating” value (johnsongrass; [8]) was 20 and the “Johnsongrass plant response rating” value (johnsongrass; [9]) was 65. For the same molecule, the “Plant response rating, Johnsongrass” value (johnsongrass; 13 to 15 days) was 85, the “Pigweed plant response rating” value (pigweed; [13]) was 100 and the “Pigweed plant response rating” value (pigweed; [14]) was 100. For the same molecule, the “Plant response rating (scale of 0 to 100 where 0 is no effect and 100 is complete control), Crabgrass, Large” value (crabgrass, large [4]) was 5, the “Crabgrass, Large plant response rating” value (crabgrass, large [4]) was 5 and the “Plant response rating, Crabgrass, Large” value (crabgrass, large [4]; [11]) was 40. The “Plant response rating, Crabgrass, Large” value (crabgrass, large [4]; [12]) was 15, the “Plant response rating (scale of 0 to 100 where 0 is no effect and 100 is complete control), Barnyardgrass” value (barnyardgrass [5]) was 5 and the “Barnyardgrass plant response rating” value (barnyardgrass [5]) was 5. For the same molecule, the “Plant response rating, Barnyardgrass” value (barnyardgrass [5]; [11]) was 45, the “Plant response rating, Barnyardgrass” value (barnyardgrass [5]; [12]) was 10 and the “Plant response rating (scale of 0 to 100), Velvetleaf” value (velvetleaf; Preemergence, 250 g ai/ha) was 100. For the same molecule, the “Velvetleaf plant response rating” value (velvetleaf; [8]) was 25, the “Velvetleaf plant response rating” value (velvetleaf; [9]) was 80 and the “Plant response rating, Velvetleaf” value (velvetleaf; 13 to 15 days) was 100.
